Patent US20070010548A1, “Compounds having inhibitive activity of phosphatidylinositol 3-kinase and methods of use thereof” (ZENTARIS GmbH, priority 2003, published 2007)
Like-named read-outs stand apart in the source and are kept apart here.

How the values were obtained:
[1] = system: SKOV3 cells; experiment: MTT cell proliferation/viability assay, SKOV3 ovarian cancer cells; format: cell-based; settings: Homo sapiens
Description: (§1) The ovarian cancer cell line SKOV3 is not altered in PI 3-K signaling and should be less sensitive to the anti-proliferative effects produced by treatment with PI 3-K inhibitors, while the OVCAR3 cell line, which is altered in PI 3-K signaling, via amplification of PI 3-K activity, should be sensitive. SKOV3 cells were seeded in 96-well cell culture plates (Greiner) at a density of 20,000 cells per well in McCoys 5A media (GibcoBRL) with 10% fetal calf serum and 20 mM L-glutamine. OVCAR3 cells were seeded at a density of 15,000 cells per well in RPMI 1640 media (GibcoBRL) containing 20 mM 1-glutamine, 0.01 ng/ml bovine insulin, 10 mM Hepes pH 7.4, 1 mM sodium pyruvate, 2.5 g/L glucose, and 20% fetal calf serum. After 24 hours, compounds were added to cell media to a final concentration of 1 μM, and the cells were grown in the presence of the compounds for 48 hours, in media containing 0.5% fetal calf serum. Viability was determined using a MTT cell proliferation assay (R and D Systems) and comparison to DMSO alone controls (100% viability). Compounds which result in reduced viability may act either by inhibiting cell proliferation or by inducing apoptosis (programmed cell death).
(§2) Many of these also show similar selective effects on cell growth. Table 2 summarizes the results of two separate cell proliferation experiments for selected compounds of the present invention.

[2] = system: tumor cells altered in PI 3-K/PTEN; experiment: Cellular growth inhibition assays on tumor cells altered in PI 3-K/PTEN; format: cell-based; settings: for IC50: approximate, read-out: Approx. mIC50 in cellular assays
Description: as §1
Selected compounds were evaluated against paired ovarian cancer cell lines at a range of concentrations to determine effective concentrations for growth inhibition.
MDA-MB-468 and MDA-MB-231 cells were seeded in 96-well cell culture plates (Greiner) at a density of 20,000 cells per well in RMPI media (GibcoBRL) with 10% fetal calf serum and 20 mM L-glutamine. After 24 hours, compounds were added to cell media to a final concentrations ranging from 10 nM to 100 μM, and the cells were grown in the presence of the compounds for 48 hours in RMPI media containing 0.5% fetal calf serum and 20 mM L-glutamine. Viability was determined using a MTT cell proliferation assay (R and D Systems) and comparison to DMSO alone controls (100% viability). Compounds which result in reduced viability may act either by inhibiting cell proliferation or by inducing apoptosis (programmed cell death). […] Selected compounds were evaluated against the paired breast cancer cell lines at a range of concentrations to determine effective concentrations for growth inhibition.
Table 3 summarizes the data for several compounds of this structural group, including the IC50 for inhibition of enzyme activity in vitro, cellular mIC50 and anti-proliferative activity against tumor cells altered in PI 3-K mediated signaling, and effects on cellular levels of phospho-Akt.

[3] = system: OVCAR3 cells; experiment: MTT cell proliferation/viability assay, OVCAR3 ovarian cancer cells; format: cell-based; settings: Homo sapiens
Description: as §1, §2

[4] = system: MA-MB-468 cells; experiment: Three dimensional matrix model of tumor cell growth; format: cell-based; settings: Homo sapiens, read-out: Percent Inhibition of Tumor Cell Viability
Description: PI 3-K inhibitors are assayed for effects on tumor cells grown in three-dimensional matrix that more closely mimics the environment of a tumor than other cell culture models. MA-MB-468 cells are mixed in a matrix solution, such as Matrigel (13D Biosciences) at 2×10 ^6 cells/ml and 100 μl of this mixture added to each well of a 24 well cell culture plate. Each well is 6.5 mm in diameter and 2×10^5 cells are added per well. Once the matrix is solidified, RMPI media containing 10% fetal calf serum and 2 mM L-glutamine is added to each well. After approximately 14 days of culture, the compounds are added to cell media at final concentrations ranging from 10 nM to 100 μM, and the cells are grown in the presence of the compounds for 7 days in RMPI media containing 0.5% fetal calf serum and 20 mM L-glutamine.
Following this treatment, cell growth in the three dimensional matrix can be measured using a cell viability assay such as the CellTiter 96 One Solution Cell Proliferation Assay (Promega, G3582). […] of assay solution is added per well, the cells are incubated for 3 hours. Absorbance at 550 nm is determined for each well and used directly as being equivalent of cell number. In addition, live and dead cells can be distinguished and observed using fluorescence microscopy after staining with Fluorescein diacetate (Sigma), which labels live cells, and propidium iodide (Sigma), which labels dead cells.
The PI 3-K inhibitors of the present invention show anti-proliferative effects in this model of tumor cell growth, as shown by the representative data in Table 6, which compares the anti-proliferative effects of one inhibitor compared to the effects of the benchmark PI 3-K inhibitor LY294002. The PI 3-K inhibitors of the present invention also show enhanced anti-proliferative activity when combined with other cancer drugs, for example paclitaxel or doxorubicin.

[5] = system: PI 3-K; settings: background literature; read-out: IC50 (inhibits PI 3-K); cited from earlier work
[6] = SK-OV-3, 48 hours, MTT, DMSO alone controls = 100% viability, Trial 1, read-out: Trial 1 SKOV-3 (viability)
[7] = SK-OV-3, 48 hours, MTT, DMSO alone controls = 100% viability, Trial 2, read-out: Trial 2 SKOV-3 (viability)
[8] = SK-OV-3, average of Trial 1 and Trial 2, 48 hours, read-out: Average SKOV3 (viability)
[9] = OVCAR-3, 48 hours, MTT, DMSO alone controls = 100% viability, Trial 1, read-out: Trial 1 OVCAR3 (viability)
[10] = OVCAR-3, 48 hours, MTT, DMSO alone controls = 100% viability, Trial 2, read-out: Trial 2 OVCAR3 (viability)
[11] = OVCAR-3, average of Trial 1 and Trial 2, 48 hours, read-out: average OVCAR-3 (viability)

CC1(C)CC(=O)C2=C(C1)Nc1c(c(-c3ccccc3)nn1-c1ccc(F)cc1)C2c1ccc(C(C)(C)C)cc1 (stereo not drawn) [Compound 963924]
viability at 1 µM [1, 6]: 100% | viability at 1 µM [1, 7]: 100% | viability at 1 µM [1, 8]: 100% | Anti-proliferative effects on tumor cells altered in PI 3-K/PTEN [2]: Yes | IC50 [2]: < 20 µM | viability at 1 µM [3, 9]: 61% | viability at 1 µM [3, 10]: 66.4% | viability at 1 µM [3, 11]: 63.7%

CCOc1ccc(C2C3=C(CC(C)(C)CC3=O)Nc3c2c(C(C)(C)C)nn3C(C)(C)C)cc1 (stereo not drawn) [Compound 963977]
viability at 1 µM [1, 6]: 98% | viability at 1 µM [1, 7]: 81.7% | viability at 1 µM [1, 8]: 89.8% | viability at 1 µM [3, 9]: 41% | viability at 1 µM [3, 10]: 59.6% | viability at 1 µM [3, 11]: 50.3%

CCOc1ccc(C2C3=C(CC(C)(C)CC3=O)Nc3c2c(C(C)(C)C)nn3-c2ccc(Cl)cc2)cc1 (stereo not drawn) [Compound 964127]
viability at 1 µM [1, 6]: 100% | viability at 1 µM [1, 7]: 100% | viability at 1 µM [1, 8]: 100% | Anti-proliferative effects on tumor cells altered in PI 3-K/PTEN [2]: Yes | IC50 [2]: < 20 µM | viability at 1 µM [3, 9]: 42% | viability at 1 µM [3, 10]: 76.2% | viability at 1 µM [3, 11]: 59.1%

COc1cc(OC)cc(C2C3=C(CC(C)(C)CC3=O)Nc3c2c(C(C)(C)C)nn3-c2ccc(Cl)cc2)c1 (stereo not drawn) [Compound 964144]
viability at 1 µM [1, 6]: 100% | viability at 1 µM [1, 7]: 100% | viability at 1 µM [1, 8]: 100% | Anti-proliferative effects on tumor cells altered in PI 3-K/PTEN [2]: Yes | IC50 [2]: < 20 µM | viability at 1 µM [3, 9]: 54% | viability at 1 µM [3, 10]: 66.2% | viability at 1 µM [3, 11]: 60.1%

Cc1cccc(-n2nc(C(C)(C)C)c3c2NC2=C(C(=O)CC(C)(C)C2)C3c2ccc(C(C)(C)C)cc2)c1C (stereo not drawn) [Compound 964336]
viability at 1 µM [1, 6]: 96% | viability at 1 µM [1, 7]: 83% | viability at 1 µM [1, 8]: 89.5% | Anti-proliferative effects on tumor cells altered in PI 3-K/PTEN [2]: Yes | IC50 [2]: < 20 µM | viability at 1 µM [3, 9]: 32% | viability at 1 µM [3, 10]: 56% | viability at 1 µM [3, 11]: 44%

Cc1ccc(C2C3=C(CC(C)(C)CC3=O)Nc3c2c(C(C)(C)C)nn3-c2cccc(F)c2)cc1 (stereo not drawn) [Compound 964352]
viability at 1 µM [1, 6]: 93% | viability at 1 µM [1, 7]: 74% | viability at 1 µM [1, 8]: 83.5% | Anti-proliferative effects on tumor cells altered in PI 3-K/PTEN [2]: Yes | IC50 [2]: < 20 µM | viability at 1 µM [3, 9]: 33% | viability at 1 µM [3, 10]: 52.9% | viability at 1 µM [3, 11]: 43%

O=c1cc(N2CCOCC2)oc2c(-c3ccccc3)cccc12 [LY294002, reference compound]
cytotoxicity at 1 µM ([4]; Concentration 1 μM): < 5% | cytotoxicity at 5 µM ([4]; Concentration 5 μM): 50% | cytotoxicity at 10 µM ([4]; Concentration 10 μM): 60% | cytotoxicity at 50 µM ([4]; Concentration 50 μM): 90%

O=c1c(O)c(-c2ccc(O)c(O)c2)oc2cc(O)cc(O)c12 [quercetin]
IC50 [5]: 3.8 µM
